Test results published in article PMC4685510, “A Cell Biologist’s Field Guide to Aurora Kinase Inhibitors” (Frontiers in Oncology, 2015).

What was measured:
Assay in all cases: biochemical
Format in all cases: biochemical
[1] = target: 363 human kinases (including Aurora A/B/C) (Homo sapiens, UniProt Q16816); conditions: PHKg1; for remaining activity at 0.1 µM: 100 nM; for remaining activity at 0.1 µM / remaining activity at 0.5 µM: read-out: % Enzyme Activity (relative to DMSO controls)
Description: (§1) However, the Aurora A/B selectivity ratios derived from our in vitro and in vivo data can be compared to prioritize inhibitors.

[2] = target: 363 human kinases (including Aurora A/B/C) (Homo sapiens, UniProt Q04912); conditions: RON/MST1R; for remaining activity at 0.1 µM: 100 nM; for remaining activity at 0.1 µM / remaining activity at 0.5 µM: read-out: % Enzyme Activity (relative to DMSO controls)
Description: as §1

[3] = target: T1, 363 human kinases (including Aurora A/B/C) (Homo sapiens, UniProt Q9H093); conditions: SNARK/NUAK2; for remaining activity at 0.1 µM: 100 nM; for remaining activity at 0.1 µM / remaining activity at 0.5 µM: read-out: % Enzyme Activity (relative to DMSO controls)
T1 sequence (Q9H093 1-628): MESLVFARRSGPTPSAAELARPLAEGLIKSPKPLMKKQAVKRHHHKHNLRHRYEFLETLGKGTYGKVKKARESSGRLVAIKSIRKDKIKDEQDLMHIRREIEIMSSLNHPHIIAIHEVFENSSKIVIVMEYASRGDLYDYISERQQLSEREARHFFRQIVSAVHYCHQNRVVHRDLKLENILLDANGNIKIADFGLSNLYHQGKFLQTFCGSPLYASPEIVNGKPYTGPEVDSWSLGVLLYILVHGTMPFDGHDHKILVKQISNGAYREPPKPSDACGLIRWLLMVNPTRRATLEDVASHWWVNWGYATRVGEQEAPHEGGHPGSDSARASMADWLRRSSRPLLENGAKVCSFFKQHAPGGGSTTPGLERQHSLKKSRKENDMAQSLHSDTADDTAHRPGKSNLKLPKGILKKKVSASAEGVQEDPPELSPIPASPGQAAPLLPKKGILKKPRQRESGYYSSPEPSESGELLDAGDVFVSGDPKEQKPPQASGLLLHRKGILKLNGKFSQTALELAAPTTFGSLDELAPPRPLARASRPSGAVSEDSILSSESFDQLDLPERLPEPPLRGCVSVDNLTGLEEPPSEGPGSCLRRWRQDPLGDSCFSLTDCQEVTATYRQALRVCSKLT
Description: as §1

[4] = target: 363 human kinases (including Aurora A/B/C) (Homo sapiens, UniProt P36507); conditions: MEK2; for remaining activity at 0.1 µM: 100 nM; for remaining activity at 0.1 µM / remaining activity at 0.5 µM: read-out: % Enzyme Activity (relative to DMSO controls)
Description: as §1

[5] = target: 363 human kinases (including Aurora A/B/C) (Homo sapiens, UniProt Q76MJ5); conditions: ERN2/IRE2, [ATP] 100 µM; for remaining activity at 0.1 µM: 100 nM; for remaining activity at 0.1 µM / remaining activity at 0.5 µM: read-out: % Enzyme Activity (relative to DMSO controls)
Description: as §1

[6] = target: T2, 363 human kinases (including Aurora A/B/C) (Homo sapiens, UniProt Q13470); conditions: TNK1; for remaining activity at 0.1 µM: 100 nM; for remaining activity at 0.1 µM / remaining activity at 0.5 µM: read-out: % Enzyme Activity (relative to DMSO controls)
T2 sequence (Q13470 1-666): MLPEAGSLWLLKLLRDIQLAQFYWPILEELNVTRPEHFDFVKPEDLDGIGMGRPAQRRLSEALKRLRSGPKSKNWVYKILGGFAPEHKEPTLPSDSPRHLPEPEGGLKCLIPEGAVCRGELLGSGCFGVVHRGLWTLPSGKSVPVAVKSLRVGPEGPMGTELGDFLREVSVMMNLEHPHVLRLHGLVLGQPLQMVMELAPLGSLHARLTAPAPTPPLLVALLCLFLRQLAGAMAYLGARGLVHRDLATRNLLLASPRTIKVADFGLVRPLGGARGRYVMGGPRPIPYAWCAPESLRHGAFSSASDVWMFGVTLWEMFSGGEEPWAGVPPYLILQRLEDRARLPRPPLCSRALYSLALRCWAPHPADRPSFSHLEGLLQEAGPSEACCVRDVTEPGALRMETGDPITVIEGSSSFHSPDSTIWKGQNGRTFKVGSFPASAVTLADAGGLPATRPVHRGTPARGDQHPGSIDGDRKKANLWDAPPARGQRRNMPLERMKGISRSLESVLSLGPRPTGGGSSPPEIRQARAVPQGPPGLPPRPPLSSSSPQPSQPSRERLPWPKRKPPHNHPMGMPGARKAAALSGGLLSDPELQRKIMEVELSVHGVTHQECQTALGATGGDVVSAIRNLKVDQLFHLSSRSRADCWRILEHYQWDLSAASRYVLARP
Description: as §1

[7] = target: 363 human kinases (including Aurora A/B/C) (Homo sapiens, UniProt O60674); conditions: JAK2; for remaining activity at 0.1 µM: 100 nM; for remaining activity at 0.1 µM / remaining activity at 0.5 µM: read-out: % Enzyme Activity (relative to DMSO controls)
Description: as §1

[8] = target: 363 human kinases (including Aurora A/B/C) (Homo sapiens, UniProt Q16539); conditions: P38a/MAPK14; for remaining activity at 0.1 µM: 100 nM; for remaining activity at 0.1 µM / remaining activity at 0.5 µM: read-out: % Enzyme Activity (relative to DMSO controls)
Description: as §1

[9] = target: T3, 363 human kinases (including Aurora A/B/C) (Homo sapiens, UniProt Q96PF2); conditions: TSSK2; for remaining activity at 0.1 µM: 100 nM; for remaining activity at 0.1 µM / remaining activity at 0.5 µM: read-out: % Enzyme Activity (relative to DMSO controls)
T3 sequence (Q96PF2 1-358): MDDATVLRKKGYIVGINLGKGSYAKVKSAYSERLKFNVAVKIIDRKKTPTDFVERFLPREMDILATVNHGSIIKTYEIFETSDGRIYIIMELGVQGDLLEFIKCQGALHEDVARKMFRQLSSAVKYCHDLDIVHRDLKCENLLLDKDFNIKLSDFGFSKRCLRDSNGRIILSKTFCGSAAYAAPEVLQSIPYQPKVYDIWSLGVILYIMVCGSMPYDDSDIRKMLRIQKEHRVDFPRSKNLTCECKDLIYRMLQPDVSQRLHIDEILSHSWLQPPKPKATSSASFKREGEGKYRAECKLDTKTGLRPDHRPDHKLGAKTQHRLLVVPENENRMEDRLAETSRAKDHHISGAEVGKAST
Description: as §1

Chain of 363 human kinases (including Aurora A/B/C) (Homo sapiens, UniProt Q76MJ5) (Q76MJ5 35-926): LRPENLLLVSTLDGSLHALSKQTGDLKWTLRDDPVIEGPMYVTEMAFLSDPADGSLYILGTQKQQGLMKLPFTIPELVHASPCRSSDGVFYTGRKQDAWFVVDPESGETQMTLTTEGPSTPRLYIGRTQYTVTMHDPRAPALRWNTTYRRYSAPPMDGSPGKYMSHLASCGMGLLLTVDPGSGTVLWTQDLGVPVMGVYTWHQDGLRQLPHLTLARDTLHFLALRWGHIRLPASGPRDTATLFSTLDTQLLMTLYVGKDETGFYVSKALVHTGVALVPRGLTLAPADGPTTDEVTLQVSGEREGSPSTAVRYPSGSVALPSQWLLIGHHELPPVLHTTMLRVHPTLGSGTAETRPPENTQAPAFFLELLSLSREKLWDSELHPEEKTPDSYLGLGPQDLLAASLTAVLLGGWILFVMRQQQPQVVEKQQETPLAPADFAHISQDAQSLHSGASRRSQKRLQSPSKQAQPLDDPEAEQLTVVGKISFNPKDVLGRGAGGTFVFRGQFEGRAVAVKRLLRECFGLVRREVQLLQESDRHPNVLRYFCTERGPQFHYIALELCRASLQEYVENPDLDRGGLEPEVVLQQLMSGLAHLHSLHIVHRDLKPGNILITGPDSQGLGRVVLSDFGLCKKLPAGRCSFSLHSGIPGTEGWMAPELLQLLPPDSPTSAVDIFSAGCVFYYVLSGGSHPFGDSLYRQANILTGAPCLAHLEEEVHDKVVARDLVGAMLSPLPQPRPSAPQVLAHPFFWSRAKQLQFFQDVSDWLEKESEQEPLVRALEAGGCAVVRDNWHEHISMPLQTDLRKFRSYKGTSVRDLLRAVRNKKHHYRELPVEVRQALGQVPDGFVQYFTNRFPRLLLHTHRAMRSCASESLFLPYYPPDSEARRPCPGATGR
Chain of 363 human kinases (including Aurora A/B/C) (Homo sapiens, UniProt Q16816) (Q16816 whole entry): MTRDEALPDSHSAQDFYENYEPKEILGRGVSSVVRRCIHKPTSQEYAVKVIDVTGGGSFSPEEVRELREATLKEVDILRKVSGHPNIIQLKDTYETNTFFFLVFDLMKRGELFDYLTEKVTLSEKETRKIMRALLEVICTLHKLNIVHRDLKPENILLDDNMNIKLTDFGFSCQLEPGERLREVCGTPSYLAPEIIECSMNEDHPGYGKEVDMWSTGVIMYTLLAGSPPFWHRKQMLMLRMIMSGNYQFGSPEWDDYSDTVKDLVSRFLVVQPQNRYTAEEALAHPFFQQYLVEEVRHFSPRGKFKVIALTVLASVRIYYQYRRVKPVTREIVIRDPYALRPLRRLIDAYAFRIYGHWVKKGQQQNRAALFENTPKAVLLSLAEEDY
Chain of 363 human kinases (including Aurora A/B/C) (Homo sapiens, UniProt P36507) (P36507 whole entry): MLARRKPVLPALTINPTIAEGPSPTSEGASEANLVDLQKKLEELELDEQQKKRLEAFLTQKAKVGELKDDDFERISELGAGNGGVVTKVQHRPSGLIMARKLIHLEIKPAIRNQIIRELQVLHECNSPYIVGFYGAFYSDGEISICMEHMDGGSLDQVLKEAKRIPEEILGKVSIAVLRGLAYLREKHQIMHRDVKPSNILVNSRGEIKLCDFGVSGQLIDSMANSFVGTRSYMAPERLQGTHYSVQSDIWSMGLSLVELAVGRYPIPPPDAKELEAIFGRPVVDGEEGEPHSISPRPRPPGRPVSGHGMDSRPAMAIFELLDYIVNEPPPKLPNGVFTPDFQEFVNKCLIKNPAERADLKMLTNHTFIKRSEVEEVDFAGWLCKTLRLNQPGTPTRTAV
Chain of 363 human kinases (including Aurora A/B/C) (Homo sapiens, UniProt O60674) (O60674 whole entry): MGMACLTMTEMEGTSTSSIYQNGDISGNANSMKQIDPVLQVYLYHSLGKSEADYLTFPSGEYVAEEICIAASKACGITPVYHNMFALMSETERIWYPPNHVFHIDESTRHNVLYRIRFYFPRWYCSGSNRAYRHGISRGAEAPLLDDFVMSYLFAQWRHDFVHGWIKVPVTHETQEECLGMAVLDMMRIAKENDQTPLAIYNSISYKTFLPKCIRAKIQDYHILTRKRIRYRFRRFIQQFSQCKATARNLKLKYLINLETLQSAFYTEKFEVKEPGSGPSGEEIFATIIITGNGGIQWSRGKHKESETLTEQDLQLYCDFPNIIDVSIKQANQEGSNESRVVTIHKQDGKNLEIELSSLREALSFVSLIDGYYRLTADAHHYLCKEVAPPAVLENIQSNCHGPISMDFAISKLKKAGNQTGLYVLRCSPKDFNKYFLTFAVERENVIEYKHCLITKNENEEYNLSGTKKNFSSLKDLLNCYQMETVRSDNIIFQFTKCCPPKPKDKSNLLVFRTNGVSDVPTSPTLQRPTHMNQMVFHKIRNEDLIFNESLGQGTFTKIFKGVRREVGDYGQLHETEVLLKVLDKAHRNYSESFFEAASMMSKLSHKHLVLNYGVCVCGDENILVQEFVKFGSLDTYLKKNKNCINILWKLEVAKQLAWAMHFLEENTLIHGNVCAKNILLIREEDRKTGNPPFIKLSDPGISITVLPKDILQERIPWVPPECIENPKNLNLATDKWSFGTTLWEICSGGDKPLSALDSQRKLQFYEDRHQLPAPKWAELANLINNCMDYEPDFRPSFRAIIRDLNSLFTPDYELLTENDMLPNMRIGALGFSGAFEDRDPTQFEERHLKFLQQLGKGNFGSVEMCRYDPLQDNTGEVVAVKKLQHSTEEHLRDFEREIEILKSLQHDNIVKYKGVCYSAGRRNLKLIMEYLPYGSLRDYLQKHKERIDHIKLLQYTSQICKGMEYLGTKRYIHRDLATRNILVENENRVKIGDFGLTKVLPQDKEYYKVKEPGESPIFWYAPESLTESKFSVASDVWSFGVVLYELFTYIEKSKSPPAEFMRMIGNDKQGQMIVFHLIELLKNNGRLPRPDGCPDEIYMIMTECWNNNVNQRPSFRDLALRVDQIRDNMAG
Chain of 363 human kinases (including Aurora A/B/C) (Homo sapiens, UniProt Q04912) (Q04912 25-1400): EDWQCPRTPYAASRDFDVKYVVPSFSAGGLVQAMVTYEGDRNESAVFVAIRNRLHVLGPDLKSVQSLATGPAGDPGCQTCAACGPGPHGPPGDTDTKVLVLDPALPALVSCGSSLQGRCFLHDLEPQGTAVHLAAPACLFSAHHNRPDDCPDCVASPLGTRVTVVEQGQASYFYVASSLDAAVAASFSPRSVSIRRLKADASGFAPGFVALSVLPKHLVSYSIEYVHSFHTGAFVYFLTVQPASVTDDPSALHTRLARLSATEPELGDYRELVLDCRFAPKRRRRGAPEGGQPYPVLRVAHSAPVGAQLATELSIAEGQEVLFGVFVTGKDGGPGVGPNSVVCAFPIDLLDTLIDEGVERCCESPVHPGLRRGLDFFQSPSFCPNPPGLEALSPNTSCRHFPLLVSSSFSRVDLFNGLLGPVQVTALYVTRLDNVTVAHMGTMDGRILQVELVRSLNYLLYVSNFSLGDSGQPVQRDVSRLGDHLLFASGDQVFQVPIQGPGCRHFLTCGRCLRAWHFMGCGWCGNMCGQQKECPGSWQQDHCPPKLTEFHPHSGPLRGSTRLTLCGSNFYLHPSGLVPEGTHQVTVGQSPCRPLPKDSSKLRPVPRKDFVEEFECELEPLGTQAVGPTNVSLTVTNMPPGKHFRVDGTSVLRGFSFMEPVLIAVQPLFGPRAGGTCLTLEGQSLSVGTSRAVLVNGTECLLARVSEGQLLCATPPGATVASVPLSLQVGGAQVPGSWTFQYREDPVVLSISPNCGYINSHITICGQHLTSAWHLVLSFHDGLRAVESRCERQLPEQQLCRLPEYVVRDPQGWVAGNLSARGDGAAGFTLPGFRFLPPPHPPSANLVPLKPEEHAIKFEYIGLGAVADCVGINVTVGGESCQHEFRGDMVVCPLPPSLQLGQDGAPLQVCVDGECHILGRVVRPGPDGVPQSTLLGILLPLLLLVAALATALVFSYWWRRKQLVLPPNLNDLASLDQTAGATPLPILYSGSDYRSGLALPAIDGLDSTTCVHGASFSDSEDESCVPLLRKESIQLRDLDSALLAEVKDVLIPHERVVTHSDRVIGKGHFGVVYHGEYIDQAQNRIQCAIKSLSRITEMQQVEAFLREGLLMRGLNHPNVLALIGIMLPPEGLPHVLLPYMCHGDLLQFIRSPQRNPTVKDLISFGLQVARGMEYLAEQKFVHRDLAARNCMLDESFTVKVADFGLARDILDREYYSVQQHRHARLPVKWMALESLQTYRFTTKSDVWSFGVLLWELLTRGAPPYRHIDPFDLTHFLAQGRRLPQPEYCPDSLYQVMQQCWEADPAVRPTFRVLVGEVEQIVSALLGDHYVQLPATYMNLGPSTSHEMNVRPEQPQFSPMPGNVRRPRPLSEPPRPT
Chain of 363 human kinases (including Aurora A/B/C) (Homo sapiens, UniProt Q16539) (Q16539 whole entry): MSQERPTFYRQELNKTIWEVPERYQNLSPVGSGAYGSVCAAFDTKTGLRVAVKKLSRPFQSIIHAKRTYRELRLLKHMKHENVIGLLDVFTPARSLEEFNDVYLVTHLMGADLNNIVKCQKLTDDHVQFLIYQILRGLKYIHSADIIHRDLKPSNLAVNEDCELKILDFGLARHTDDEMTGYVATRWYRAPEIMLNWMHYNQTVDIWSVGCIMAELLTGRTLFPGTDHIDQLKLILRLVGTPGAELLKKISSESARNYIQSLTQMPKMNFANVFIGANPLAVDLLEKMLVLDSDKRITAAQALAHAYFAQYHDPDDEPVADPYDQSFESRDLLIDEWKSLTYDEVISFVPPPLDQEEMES

Question: Which results are given for `CCn1cc(-c2ccnc3[nH]c(-c4cccc(CN(C)C)c4)cc23)c(-c2ccc(NC(=O)N(C)C)cc2)n1` [GSK1070916]?
Answer: remaining activity at 0.1 µM [1]: 95.6%; remaining activity at 0.1 µM [2]: 93.8%; remaining activity at 0.1 µM [3]: 88.7%; remaining activity at 0.1 µM [4]: 98.2%; remaining activity at 0.1 µM [5]: 87.3%; remaining activity at 0.1 µM [6]: 90.7%; remaining activity at 0.1 µM [7]: 104%; remaining activity at 0.1 µM [8]: 93.6%; remaining activity at 0.1 µM [9]: 99.9%

Question: For `O=C(c1cccc(Cl)c1F)N1CCN(Cc2cccc(Nc3nccs3)n2)CC1` [MK-8745], which “% Enzyme Activity (relative to DMSO controls)” value ([1]; 500 nM) is on record?
Answer: 90.90%

Question: And the remaining activity at 0.5 µM ([1]; 500 nM)?
Answer: 93.3%

Question: And the “% Enzyme Activity (relative to DMSO controls)” value ([2]; 500 nM)?
Answer: 94.45%

Question: What about the remaining activity at 0.5 µM ([2]; 500 nM) of the same compound?
Answer: 96.3%

Question: And the “% Enzyme Activity (relative to DMSO controls)” value ([3]; 500 nM)?
Answer: 85.75%

Question: What about the remaining activity at 0.5 µM ([3]; 500 nM) of the same compound?
Answer: 88.1%

Question: And the “% Enzyme Activity (relative to DMSO controls)” value ([4]; 500 nM)?
Answer: 93.13%

Question: And the remaining activity at 0.5 µM ([4]; 500 nM)?
Answer: 95.2%

Question: And the “% Enzyme Activity (relative to DMSO controls)” value ([5]; 500 nM)?
Answer: 93.54%

Question: And the remaining activity at 0.5 µM ([5]; 500 nM)?
Answer: 94.5%

Question: And the “% Enzyme Activity (relative to DMSO controls)” value ([6]; 500 nM)?
Answer: 75.54%

Question: And the remaining activity at 0.5 µM ([6]; 500 nM)?
Answer: 77.7%

Question: And the “% Enzyme Activity (relative to DMSO controls)” value ([7]; 500 nM)?
Answer: 62.84%

Question: What about the remaining activity at 0.5 µM ([7]; 500 nM) of the same compound?
Answer: 65.6%

Question: And the “% Enzyme Activity (relative to DMSO controls)” value ([8]; 500 nM)?
Answer: 95.14%

Question: What about the remaining activity at 0.5 µM ([8]; 500 nM) of the same compound?
Answer: 95.3%

Question: What about the “% Enzyme Activity (relative to DMSO controls)” value ([9]; 500 nM) of the same compound?
Answer: 93.76%

Question: And the remaining activity at 0.5 µM ([9]; 500 nM)?
Answer: 94.7%

Question: `O=C(O)[C@]1(Cc2cccc(Nc3nccs3)n2)CC[C@@H](Oc2cccc(Cl)c2F)CC1` [MK-5108] was tested. Which remaining activity at 0.1 µM [1] did it give?
Answer: 99.1%

Question: What about the remaining activity at 0.5 µM ([1]; 500 nM) of the same compound?
Answer: 82%

Question: And the remaining activity at 0.1 µM [2]?
Answer: 101%

Question: What about the remaining activity at 0.5 µM ([2]; 500 nM) of the same compound?
Answer: 94.1%

Question: What about the remaining activity at 0.1 µM [3] of the same compound?
Answer: 104%

Question: What about the remaining activity at 0.5 µM ([3]; 500 nM) of the same compound?
Answer: 70.8%

Question: What about the remaining activity at 0.1 µM [4] of the same compound?
Answer: 95.6%

Question: What about the remaining activity at 0.5 µM ([4]; 500 nM) of the same compound?
Answer: 90.3%

Question: What about the remaining activity at 0.1 µM [5] of the same compound?
Answer: 97%

Question: And the remaining activity at 0.5 µM ([5]; 500 nM)?
Answer: 87.6%

Question: And the remaining activity at 0.1 µM [6]?
Answer: 22.9%

Question: What about the remaining activity at 0.5 µM ([6]; 500 nM) of the same compound?
Answer: 6.3%

Question: What about the remaining activity at 0.1 µM [7] of the same compound?
Answer: 31.1%

Question: And the remaining activity at 0.5 µM ([7]; 500 nM)?
Answer: 7.8%

Question: And the remaining activity at 0.1 µM [8]?
Answer: 95.2%

Question: And the remaining activity at 0.5 µM ([8]; 500 nM)?
Answer: 101%

Question: What about the remaining activity at 0.1 µM [9] of the same compound?
Answer: 103%

Question: What about the remaining activity at 0.5 µM ([9]; 500 nM) of the same compound?
Answer: 91.5%
